Data from US9371335B2, “Spirothienopyran-piperidine derivatives as ORL-1 receptor antagonists for their use in the treatment of alcohol dependence and abuse” (Eli Lilly and Company, priority 2011, dated 2016).

Key:
[1] = system: P rats; assay: Free-choice ethanol self-administration in P rats; assay type: in vivo, rat; conditions: for Mean EtOH Consumed in g/kg (Drug-treated) / Reduction vs. Vehicle (EtOH consumed): 12 hr; for ethanol self-administration: free-choice access, P rats and msP rats
Source text: Free-Choice Ethanol Self-Administration in Alcohol-Preferring Rats: P Rats:
In this procedure (modified from Rodd-Henricks Z A, McKinzie D L, Shaikh S R, Murphy J M, McBride W J, Lumeng L and Li T K (2000) Alcohol deprivation effect is prolonged in the alcohol preferring (P) rat after repeated deprivations. Alcohol Clin Exp Res 24:8-16), female P rats are obtained from a private colony (Taconic, Germantown, N.Y.), individually-housed with food, 15% ethanol (v/v, in water), and water available ad libitum, and maintained on a 12 hr. light/dark cycle (lights off at 16:00). The chambers are equipped with a force transduction system (TSE Systems, Bad Homburg, Germany) attached to the ethanol, water, and food receptacles to enable continuous monitoring of food and liquid consumption. Rats voluntarily consume 15% ethanol with a mean daily intake of roughly 5 g/kg for several months prior to drug testing. Rats are treated orally with vehicle or test compounds in the dose range of 3, 10, or 30 mg/kg (3 mL/kg dose volume, dissolved in a vehicle consisting of 20% Captisol® in 25 mM phosphate buffer at pH=2), or naltrexone (10 mg/kg, 1 mL/kg dose volume, dissolved in water) immediately prior to the onset of the dark cycle, using a within-subjects, crossover design (3-4 day washout between subsequent doses). In a separate experiment, rats receive oral administration of vehicle followed by 4 daily oral doses of vehicle or 30 mg/kg test compound immediately prior to the onset of the dark cycle, using a between-subjects design.

[2] = system: Alcohol-Preferring (P) rats; assay: Operant ethanol self-administration in P rats (progressive ratio schedule); assay type: in vivo, rat; conditions: for ethanol-motivated responding: P rats on progressive ratio schedule, result in words; for Reduction vs. Vehicle (lever presses) / Mean Number of Lever Presses (Drug-treated): female P rats; for Mean Number of Lever Presses (Drug-treated): 30-min progressive ratio session
Source text: Operant Self-Administration in P rats:
Female P rats are obtained and pair-housed from a private colony (Taconic, Germantown, N.Y.). In order to reduce novelty-induced avoidance of ethanol, the water bottle on the homecage is replaced with a bottle containing 15% ethanol in water (v/v, in water) for two days prior to operant training. Throughout the rest of the experiment, rats receive ad libitum access to water and standard laboratory chow, with no further access to ethanol in the homecage.
Rats are trained to press a lever for ethanol reinforcement in daily 30-min sessions conducted in standard rat operant chambers contained within sound-attenuating chambers (MED Associates, Inc., St. Albans, Vt.). The chambers consist of two stainless steel and two clear Plexiglas walls. The floor grid of the operant chambers consists of 0.5 cm diameter stainless steel bars placed approximately 1.5 cm apart. Each operant chamber contains two retractable operant levers located approximately 6 cm above the grid floor and 13 cm apart. A recessed trough is located in the space between the levers, through which a dipper cup (0.1 mL capacity) is raised to deliver response-contingent ethanol (15%, v/v, in water). Upon a reinforced response, a stimulus light is illuminated above the lever on which the response was made throughout the 4-sec dipper cup access. Operation of the stimuli and behavioral responses are controlled and recorded by personal computer for offline analysis (MED Associates, Inc., St. Albans, Vt.).
During operant training, responses on either lever are considered correct responses and are rewarded with 0.1 mL ethanol reinforcement. […] Once stable baseline responding is reached on an FR-1 schedule of reinforcement, the response contingency is increased to FR-2 and then again to FR-3 so that 3 lever presses are required for each reinforcement. […] Specifically, the response requirement is increased as follows: all rats begin each session at an FR-1 schedule of reinforcement; after three reinforcements, the schedule is increased to FR-2; after three reinforcements at that level, the schedule is increased by two to FR-4; after three reinforcements, the schedule is increased by two to FR-6; and so on (see for e.g. Oster S M, Toalston J E, Kuc K A, Pommer T J, Murphy J M, Lumeng L, Bell R L, McBride W J and Rodd Z A (2006) Effects of multiple alcohol deprivations on operant ethanol self-administration by high-alcohol-drinking replicate rat lines. Alcohol 38:155-164). Each session lasts a total of 30 min, after which, all stimuli are turned off and levers are retracted. […] The amount of ethanol consumed is calculated from the number of active lever presses, and converted into g/kg EtOH consumed. Rats receive oral administration of vehicle or test compound in the dose range of 3, 10, or 30 mg/kg (3 mL/kg dose volume, dissolved in a vehicle consisting of 20% Captisol® in 25 mM phosphate buffer at pH=2), or the nonselective opioid receptor antagonist naltrexone (10 mg/kg) as a positive control, 60 min. prior to the session, using a within-subjects, crossover design (3-4 day washout between subsequent doses). On a separate occasion, rats receive oral administration of vehicle or 30 mg/kg test compound (1 mL/kg dose volume, dissolved in a vehicle consisting of 20% Captisol® in 25 mM phosphate buffer), 30 min prior to the session, using a crossover design.

[3] = P rats, 30 mg/kg oral once daily, day 2
[4] = P rats, 30 mg/kg oral once daily, day 3
[5] = P rats, 30 mg/kg oral once daily, day 4
[6] = P rats, 30 mg/kg oral once daily, day 5

Row | SMILES | Mean EtOH Consumed in g/kg (Drug-treated) ([1]; P rats, 10 mg/kg oral) | Reduction vs. Vehicle (EtOH consumed) ([1]; P rats, 10 mg/kg oral) | Mean EtOH Consumed in g/kg (Drug-treated) ([1]; P rats, 30 mg/kg oral) | Reduction vs. Vehicle (EtOH consumed) ([1]; P rats, 30 mg/kg oral) | ethanol self-administration ([1]; result in words) | ethanol-motivated responding [2] | Reduction vs. Vehicle (lever presses) ([2]; 30 mg/kg oral) | Mean Number of Lever Presses (Drug-treated) ([2]; 30 mg/kg oral) | also measured
1 | Cc1nn(-c2ncccc2CO)cc1CN1CCC2(CC1)OCC(F)(F)c1cc(Cl)sc12 [Compound 1, [2-[4-[(2-chloro-4,4-difluoro-spiro[5H-thieno[2,3-c]pyran-7,4′-piperidine]-1′-yl)methyl]-3-methyl-pyrazol-1-yl]-3-pyridyl]methanol] | 3.67 g/kg | 22.4% | 1.50 g/kg | 68.3% | significantly reduce ethanol self-administration | reduce ethanol-motivated responding | 55.8% | 191.25 | Mean EtOH Consumed in g/kg (Drug-treated) ([1]; P rats, 3 mg/kg oral): 3.54 g/kg; Reduction vs. Vehicle (EtOH consumed) ([1]; P rats, 3 mg/kg oral): 25.2%; Mean EtOH Consumed in g/kg (day 2) [1, 3]: 1.59 g/kg; Reduction vs. vehicle (EtOH consumed, day 2) [1, 3]: 63.6%; Mean EtOH Consumed in g/kg (day 3) [1, 4]: 2.02 g/kg; Reduction vs. vehicle (EtOH consumed, day 3) [1, 4]: 61.8%; Mean EtOH Consumed in g/kg (day 4) [1, 5]: 2.69 g/kg; Reduction vs. vehicle (EtOH consumed, day 4) [1, 5]: 45.0%; Mean EtOH Consumed in g/kg (day 5) [1, 6]: 2.50 g/kg; Reduction vs. vehicle (EtOH consumed, day 5) [1, 6]: 54.0%; suppression of ethanol intake on repeated dosing ([1]; P rats, 4 days of once daily dosing, result in words): maintain suppression of ethanol intake in P rats throughout 4 days of once daily dosing without tachyphylaxis; Reduction vs. Vehicle (lever presses) ([2]; 3 mg/kg oral): 4.6%; Mean Number of Lever Presses (Drug-treated) ([2]; 3 mg/kg oral): 412.58; Reduction vs. Vehicle (lever presses) ([2]; 10 mg/kg oral): 23.7%; Mean Number of Lever Presses (Drug-treated) ([2]; 10 mg/kg oral): 330
2 | Cc1nn(-c2ncccc2F)cc1CN1CCC2(CC1)OCC(F)(F)c1cc(Cl)sc12 [Compound 2, 2-Chloro-4,4-difluoro-1′-[[1-(3-fluoro-2-pyridyl)-3-methyl-pyrazol-4-yl]methyl]spiro[5H-thieno[2,3-c]pyran-7,4′-piperidine]] | 3.70 g/kg | 28.3% | 3.40 g/kg | 34.1% | significantly reduce ethanol self-administration | reduce ethanol-motivated responding | 61.9% | 143.31 | 
